Data: patent US8017584B2, “GD3-mimetic peptides” (Otsuka Pharmaceutical Co., Ltd., priority 2000, dated 2011)

Tested on: anti-GD3 antibody 4F6
Test: ELISA of MAPs immobilized at various amounts with 4F6 (Example 5(2), FIG. 3)
Format: binding, mouse
Settings: MAPs or GD3 immobilized at various amounts
Excerpt: (1) In a manner similar to that described in Example 3, peptides of N-terminus 9 amino acid residues or C-terminus 9 amino acid residues of GD3R1, GD3R2, GD3R3, or GD3R4. The nomenclature and sequences of respective peptides employed in the present test are shown in FIG. 2 These were employed as multi-antigen peptides (MAPs). (2) In order to extend the research on bonding between the anti-GD3 antibody 4F6 and each of the GD3-mimetic peptides shown in FIG. 1, multi-antigen peptides (MAPs) were subjected to ELISA. MAP samples having a variety of concentrations shown on the X-axis in FIG. 3 were provided, and each sample was immobilized onto the wells of a 96-well plate. Subsequently, the wells were blocked with a blocking solution (TBS supplemented with 1% BSA, 0.1% skim milk, and 0.02% Tween 20) at 4° C. overnight. 4F6 (hybridoma supernatant: used in the neat form) was added (100 μL/well) for reaction at room temperature for 2 hours. After completion of reaction, the supernatant was discarded, and the wells were washed with a washing solution (TBS supplemented with 1% FBS and 0.05% Tween 20) six times. Subsequently, the wells were allowed to react with peroxidase-labeled anti-mouse IgG (diluted 1,000-fold with a blocking solution) at room temperature for 2 hours. The wells were again washed with a washing solution four times, and the amount of peroxidase enzyme remaining in each well was detected and quantitatively determined with the substrate TMB, whereby binding of MAP to 4F6 was investigated. The test was performed in triplicate, and the values in the graph are “mean ±SD.”

| Sequence | binding of 4F6 to immobilized sample (words, FIG. 3) |
| --- | --- |
| GLAPPDYAERFELLS [GD3R3, tested as phage clone, MAP form or peptide] | in an amount-dependent manner |
| RHAYRSMAEWGFLYS (RHAYRSMAQWGFLYS) [GD3R4, tested as phage clone, MAP form or peptide] | in an amount-dependent manner |
